From patent publication US20240294478A1, “ANTI-CANCER COMPOUNDS AND METHODS OF USE” (YALE UNIVERSITY, priority 2021, published 2024)
Like-named read-outs stand apart in the source and are kept apart here.

Tests used:
[1] = system: LN229 MGMT− shPMS2 cells; assay: Short-term viability assay, LN229 MGMT- shPMS2; assay type: cell-based, human; conditions: for IC50: Homo sapiens, LN-229, Table III, read-out: IC50 against LN229 cell lines, MGMT− MMR−; for MGMT− RI: Table III
Procedure: (§1) The activity of KL-50 in MGMT-LN229 cells engineered to lack expression of other key MMR proteins including MSH6, MLH1, PMS2, and MSH3 was also confirmed. Western blotting was performed in LN229 MGMT+/−cells with stable expression of shRNA targeting MSH6, MLH1, PMS2, or MSH3 to confirm depletion of the shRNA targets. In shMSH6 cells, there was reduced expression of MSH2, and in shMLH1 cells, there was loss of PMS2, due to destabilization in the setting of loss of their heterodimeric partners. GAPDH serves as loading control. […] Short-term viability assay curves for KL-50 in LN229 MGMT+/−, MMR+/shMSH6 cells. […] Short-term viability assay curves for KL-50 in LN229 MGMT+/−, MMR+/shMLH1 cells. […] Short-term viability assay curves for KL-50 in LN229 MGMT+/−, MMR+/shPMS2 cells. […] Short-term viability assay curves for KL-50 in LN229 MGMT+/−, MMR+/shMSH3 cells.
(§2) MMR Protein shRNA Knockdown. pGIPZ lentiviral shRNA vectors targeting MSH2, MSH6, MLH1, PMS2, and MSH3 were purchased from Horizon Discovery (Table IV). Lentiviral particles were produced in HEK293T cells via co-transfection with lentiviral shRNA plasmid, pCMV-VSV-G envelope plasmid (Addgene, #8454) and psPAX2 packaging plasmid (Addgene, #12260), using Lipofectamine 3000 Reagent (Invitrogen, L3000001) per manufacturer's protocol. Viral particles were harvested 48 h post-transfection and used to transduce LN229 MGMT+/−cells in the presence of 8 μg/mL polybrene. Selection of pooled cells with lentiviral expression was established with 1 μg/mL puromycin 48 h post-transduction for 3 to 4 days. Single cell cloning was performed by limiting dilution and protein knockdown was confirmed by western blotting.
(§3) Short-term Cell Viability Assay. Cells were seeded in 96-well plates at 1000 or 2000 cells/well and allowed to adhere at 23° C. for 60 min and then incubated overnight at 37° C. Cells were treated with indicated concentrations of compounds in triplicate for 4-6 days prior to fixation with 3.7% paraformaldehyde and nuclear staining with 1 μg/mL Hoechst 33342 dye. Cells were imaged on a Cytation 3 imaging reader (BioTek) and quantified using CellProfiler software. For in vitro short-term growth delay experiments, IC50 values were determined from the nonlinear regression equation, [inhibitor] vs normalized response with variable slope.

[2] = system: LN229 MGMT−/MMR− cells; assay: Short-term cell viability assay, LN229 MGMT-/MMR- (shRNA targeting MSH2); assay type: cell-based, human; conditions: for IC50: Homo sapiens, read-out: IC50 against LN229 cell lines, MGMT− MMR−; for activity in MGMT−/MMR− cells, in words: LN229 MGMT−/MMR−
Procedure: LN229 MGMT- and MGMT+ cell lines were a gift from B. Kaina (Johannes Gutenberg University Mainz, Mainz, Germany) and grown in Gibco® Duilbecco's Modified Eagle Medium with 10% fetal bovine serum (DMEM). For each compound tested, the relationship between MGMT status and MMR status and compound activity, in terms of IC50 values ([…]), was determined by the following method. On day 1, LN229 isogenic cells of varying MGMT and MMR status were seeded in 96 well format at a density of 2000 cells/well in 100 μL of DMEM media and allowed to adhere overnight. On day 2, a drug master plate was made with 100×the desired maximal concentration of test compound and serially diluted by 2 until 100×the minimal desired concentration, with one DMSO control. Then daughter plates were created with varied concentrations from 3-times the minimal concentration to 3-times the maximal desired concentration. Afterwards, 50 μL of daughter drug plate was added to 100 μL of the seeded cells for a final concentration of 1×in triplicate. Cells were allowed to grow for 6 days. On day 7, the cells were fixed, and stained with Hoechst nuclear dye and imaged to determine growth inhibition.
For each compound tested, the relationship between MGMT status and MMR status and compound activity, in terms of IC50 values (in μM), was determined. In addition, for each compound, the therapeutic index (TI) was calculated, according to the equation MGMT TI=IC50 (MGMT+/MMR+) divided by IC50 (MGMT−/MMR+). […] MMR RI (resistance index)=IC50 (MGMT−/MMR−) divided by IC50 (MGMT−/MMR+).
as §3, with “Cells were treated with indicated concentrations of compounds in triplicate for 4-6 days prior to fixation with 3.7% paraformaldehyde and nuclear staining with 1 μg/mL Hoechst 33342 dye.” left out

[3] = system: LN229 MGMT+ shMSH3 cells; assay: Short-term viability assay, LN229 MGMT+ shMSH3; assay type: cell-based; conditions: Homo sapiens, LN-229, Table III, read-out: IC50 against LN229 cell lines, MGMT MMR−
Procedure: as §1
MMR Protein shRNA Knockdown. pGIPZ lentiviral shRNA vectors targeting MSH2, MSH6, MLH1, PMS2, and MSH3 were purchased from Horizon Discovery (Table IV). […]
Short-term Cell Viability Assay. […] Cells were imaged on a Cytation 3 imaging reader (BioTek) and quantified using CellProfiler software. For in vitro short-term growth delay experiments, IC50 values were determined from the nonlinear regression equation, [inhibitor] vs normalized response with variable slope.

[4] = system: LN229 MGMT− shMLH1 cells; assay: Short-term viability assay, LN229 MGMT- shMLH1; assay type: cell-based, human; conditions: for IC50: Homo sapiens, LN-229, Table III, read-out: IC50 against LN229 cell lines, MGMT− MMR−; for MGMT− RI: Table III
Procedure: as §1, §2, §3

[5] = system: MGMT+ LN229 cells; assay: Clonogenic survival assay, LN229 MGMT+ cells; assay type: cell-based, human
Procedure: In vitro clonogenic survival assays (CSAs) were performed using four isogenic LN229 glioblastoma cell lines.
Clonogenic Cell Survival Assay. Cells of each line were pretreated with the test drug in culture for 48-72 hours at the specified dilutions. The cells were then immediately seeded in six-well plates in triplicate at three-fold dilutions, ranging from 9000 to 37 cells per well. Depending on colony size, these plates were kept in the incubator for 10 to 14 days. After incubation, colonies were washed in phosphate-buffered saline (PBS) and stained with crystal violet. Colonies were counted by hand. Counts were normalized to plating efficiency of the corresponding treatment condition.

| SMILES | IC50 [1] [µM] | MGMT− RI [1] | IC50 ([2]; LN-229, Table II) [µM] | activity in MGMT−/MMR− cells, in words [2] | MGMT− RI (resistance index) ([2]; Table II, IC50 (MGMT−/MMR−) divided by IC50 (MGMT−/MMR+)) | IC50 [3] [µM] | IC50 [4] [µM] | MGMT− RI [4] | clonogenic survival, toxicity to MGMT+ cells ([5]; at doses up to at least 200 μM) | IC50 ([2]; LN-229, 144 h, Table 1, 6 days growth) [µM] | clonogenic survival, activity in MGMT+ cells ([5]; irrespective of MMR status) |
| --- | --- | --- | --- | --- | --- | --- | --- | --- | --- | --- | --- |
| NC(=O)c1ncn2c(=O)n(CCF)nnc12 [KL-50] | 5.4 ± 0.3 | 0.4 | 22 ± 6.9 | exquisite sensitivity | 0.9 | 328 ± 26 | 7.8 ± 0.3 | 0.6 | minimal toxicity | – | – |
| Cn1nnc2c(C(N)=O)ncn2c1=O [TMZ, 4-methyl-5-oxo-2,3,4,6,8-pentazabicyclo[4.3.0]nona-2,7,9-triene-9-carboxamide, reference compound] | 921 ± 190 | 181 | 838 ± 100 | essentially inactive | – | 649 ± 32 | 917 ± 85 | 180 | – | 838 ± 100 | negligible activity |
